Several values for one entry are separate records, joined by “and”; a condition that tells them apart may be missing. Equal entries are not always repeated. Entries after “also recorded” stand apart in the source; their conditions may differ. Where two headings read alike, the source gives them in different places.
Columns and labels:
[1] = tested on: patients; details: cited from earlier work; for incidence of diarrhea / incidence of second malignancy: ref 10 (ibrutinib), 14 (acalabrutinib), 15 (zanubrutinib)
[2] = tested on: patients with r/r MCL; details: cited from earlier work
[3] = tested on: patients with r/r MCL; assay: phase 1/2 study safety; format: in vivo, human
[4] = tested on: patients with r/r MCL; assay: phase 1/2 study efficacy; format: in vivo, human
[5] = pharmacokinetics in patients with r/r MCL
[6] = PET assessment, median follow-up 18.4 months
[7] = median follow-up of 26.7 months
[8] = PET assessment, median follow-up 26 months
[9] = 29 patients with best response CR
[10] = IRC-assessed, n=106, follow-up 23.8 mo
[11] = Investigator-assessed, n=106, follow-up 23.8 mo

C=CC(=O)N1CCC([C@@H]2CCNc3c(C(N)=O)c(-c4ccc(Oc5ccccc5)cc4)nn32)CC1 [zanubrutinib]
major hemorrhage [1]: 5.4%
rate of treatment discontinuation [1]: 12.5%
incidence of diarrhea [1]: 23%
incidence of second malignancy [1]: 14%
CR [2, 6]: 68.6%
ORR [2, 6]: 84%
median TTR [2]: 2.8 months
median DOR ([2]; zanubrutinib trial): 19.5 months
median PFS ([2]; zanubrutinib trial): 22.1 months

C=CC(=O)N1CCC[C@@H](n2nc(-c3ccc(Oc4ccccc4)cc3)c3c(N)ncnc32)C1 [ibrutinib]
grade 3 or greater atrial fibrillation and atrial flutter [1]: 4%
grade 3 or higher hypertension events [1]: 8%
median TTR [2]: 1.9 months
ORR in patients with bulky tumors [2, 7]: 67%
ORR in patients with ≥2 prior treatments [2, 7]: 63%
ORR ([2]; pivotal study 1104, r/r MCL, median 15.3-month follow-up, CT-based): 65.8%
median DOR ([2]; pivotal study 1104): 17.5 months
median PFS ([2]; pivotal study 1104): 13.9 months
CR ([2]; pivotal study 1104, median 15.3-month follow-up, CT-based): 17.1%

CC#CC(=O)N1CCC[C@H]1c1nc(-c2ccc(C(=O)Nc3ccccn3)cc2)c2c(N)nccn12 [acalabrutinib]
major hemorrhage [1]: 3.0%
incidence of diarrhea [1]: 31%
incidence of second malignancy [1]: 12%
CR [2, 8]: 43%
ORR [2, 8]: 81%
median DOR ([2]; acalabrutinib trial): 26 months
median PFS ([2]; acalabrutinib trial): 20 months

C=CC(=O)N1CCC(c2ccc(C(N)=O)c(-c3ccc(Oc4ccccc4)cc3)n2)CC1 [orelabrutinib]
atrial fibrillation, grade 1 ([3]; cycle 1, deemed unrelated to treatment): 1 episode
AEs leading to discontinuation of treatment ([3]; n=106): 4.7%
Alanine aminotransferase increase (any grade): Incidence ([3]; n=106): 10.4%
Alanine aminotransferase increase (any grade): Number of patients ([3]; n=106): 11
All TEAEs: Incidence ([3]; n=106): 95.3%
All TEAEs: Number of patients ([3]; n=106): 101
All grade ≥3 TEAEs: Incidence ([3]; n=106): 51.9%
All grade ≥3 TEAEs: Number of patients ([3]; n=106): 55
Anemia (any grade): Incidence ([3]; n=106): 19.8%
Anemia (any grade): Number of patients ([3]; n=106): 21
Anemia (grade ≥3): Incidence ([3]; n=106): 7.5%
Anemia (grade ≥3): Number of patients ([3]; n=106): 8
Cough (any grade): Incidence ([3]; n=106): 16.0%
Cough (any grade): Number of patients ([3]; n=106): 17
Diarrhea (any grade): Incidence ([3]; n=106): 11.3%
Diarrhea (any grade): Number of patients ([3]; n=106): 12
Disease progression (grade ≥3 AE): Incidence ([3]; n=106): 4.7%
Disease progression (grade ≥3 AE): Number of patients ([3]; n=106): 5
Grade 3 or higher infection events ([3]; n=106): 14.2%
Hematuria (any grade): Incidence ([3]; n=106): 10.4%
Hematuria (any grade): Number of patients ([3]; n=106): 11
Hyperglycemia (any grade): Incidence ([3]; n=106): 12.3%
Hyperglycemia (any grade): Number of patients ([3]; n=106): 13
Hypertension (any grade): Incidence ([3]; n=106): 17%
Hypertension (any grade): Number of patients ([3]; n=106): 18
Hypertension (grade ≥3): Incidence ([3]; n=106): 5.7%
Hypertension (grade ≥3): Number of patients ([3]; n=106): 6
Hypoalbuminemia (any grade): Incidence ([3]; n=106): 10.4%
Hypoalbuminemia (any grade): Number of patients ([3]; n=106): 11
Hypokalemia (any grade): Incidence ([3]; n=106): 17.0%
Hypokalemia (any grade): Number of patients ([3]; n=106): 18
Hypokalemia (grade ≥3): Incidence ([3]; n=106): 2.8%
Hypokalemia (grade ≥3): Number of patients ([3]; n=106): 3
Leukocytosis (grade ≥3): Incidence ([3]; n=106): 3.8%
Leukocytosis (grade ≥3): Number of patients ([3]; n=106): 4
Leukopenia (any grade): Incidence ([3]; n=106): 19.8%
Leukopenia (any grade): Number of patients ([3]; n=106): 21
Lymphocytosis (grade ≥3): Incidence ([3]; n=106): 3.8%
Lymphocytosis (grade ≥3): Number of patients ([3]; n=106): 4
Neutropenia (any grade): Incidence ([3]; n=106): 24.5%
Neutropenia (any grade): Number of patients ([3]; n=106): 26
Neutropenia (grade ≥3): Incidence ([3]; n=106): 8.5%
Neutropenia (grade ≥3): Number of patients ([3]; n=106): 9
Pneumonia (any grade): Incidence ([3]; n=106): 11.3%
Pneumonia (any grade): Number of patients ([3]; n=106): 12
Pneumonia (grade ≥3): Incidence ([3]; n=106): 5.7%
Pneumonia (grade ≥3): Number of patients ([3]; n=106): 6
Pneumonitis (any grade): Incidence ([3]; n=106): 17.9%
Pneumonitis (any grade): Number of patients ([3]; n=106): 19
Pneumonitis (grade ≥3): Incidence ([3]; n=106): 3.8%
Pneumonitis (grade ≥3): Number of patients ([3]; n=106): 4
Prolonged QT interval (any grade): Incidence ([3]; n=106): 11.3%
Prolonged QT interval (any grade): Number of patients ([3]; n=106): 12
Pyrexia (any grade): Incidence ([3]; n=106): 12.3%
Pyrexia (any grade): Number of patients ([3]; n=106): 13
Rash (any grade): Incidence ([3]; n=106): 17.0%
Rash (any grade): Number of patients ([3]; n=106): 18
SAE Pneumonia: Incidence ([3]; n=106): 5.7%
SAE Pneumonitis: Incidence ([3]; n=106): 4.7%
SAE Progressive disease: Incidence ([3]; n=106): 4.7%
Soft tissue infection (grade ≥3): Incidence ([3]; n=106): 2.8%
Soft tissue infection (grade ≥3): Number of patients ([3]; n=106): 3
Thrombocytopenia (any grade): Incidence ([3]; n=106): 34.0%
Thrombocytopenia (any grade): Number of patients ([3]; n=106): 36
Thrombocytopenia (grade ≥3): Incidence ([3]; n=106): 13.2%
Thrombocytopenia (grade ≥3): Number of patients ([3]; n=106): 14
Upper respiratory tract infection (any grade): Incidence ([3]; n=106): 27.4%
Upper respiratory tract infection (any grade): Number of patients ([3]; n=106): 29
Weight increase (any grade): Incidence ([3]; n=106): 11.3%
Weight increase (any grade): Number of patients ([3]; n=106): 12
bleeding events (any) ([3]; n=106): 34.9%
bleeding events grade 1 ([3]; n=106): 31.1%
bleeding events grade 2 ([3]; n=106): 3.8%
death from infection due to acute myeloid leukemia ([3]; n=106): 1%
death from lung infection due to the common cold ([3]; n=106): 1%
deaths due to drug-related AEs (fatal TRAEs) ([3]; n=106): no fatal TRAEs were reported; also recorded: No deaths due to drug-related AEs were reported
deaths from AEs deemed unrelated to treatment ([3]; n=106): 2%
deaths from disease progression ([3]; n=106): 15%
diarrhea judged as related to treatment ([3]; n=106): 3.8%
discontinued treatment because of drug-related AEs ([3]; n=106): 2.8%
drug-related grade 3 or higher infection events ([3]; n=106): 6.6%
drug-related infection events ([3]; n=106): 34%
drug-related pneumonia ([3]; n=106): 7.5%
drug-related upper respiratory tract infection ([3]; n=106): 13.2%
grade 3 or higher second primary malignancy, atrial fibrillation/flutter, diarrhea, or bleeding events ([3]; n=106): No grade 3 or higher second primary malignancy, atrial fibrillation/flutter, diarrhea, or bleeding events were observed
major hemorrhage (grade 3 or higher, serious, or any grade CNS bleeding) ([3]; n=106): No patient experienced major hemorrhage
microscopic hematuria ([3]; n=106): 6.6%
patients who died during the study ([3]; n=106): 27 patients
patients with treatment-related grade 3 or higher AEs ([3]; n=106): 34.9%
petechiae ([3]; n=106): 4.7%
proportion of AEs that were grade 1 or 2 ([3]; n=106): 89%
purpura ([3]; n=106): 4.7%
rate of second malignancy ([3]; n=106): 2.8%
second primary malignancy ([3]; n=106): 3 patients
treatment-related AEs leading to dose interruption ([3]; n=106): 17%
treatment-related anemia ([3]; n=106): 14.2%
treatment-related decreases in neutrophils ([3]; n=106): 22.6%
treatment-related decreases in platelets ([3]; n=106): 32.1%
treatment-related decreases in white blood cells ([3]; n=106): 18.9%
treatment-related hypertension ([3]; n=106): 15.1%
DOR rate at 24 months [4, 9]: ~80%
OS at 24 months [4, 9]: ~100%
PFS rate at 24 months [4, 9]: ~80%
median reduction percentage in the SPD of target lesions ([4]; CT/MRI, baseline median SPD 2514.4 mm^2): 87.2%
patients with objective response ([4]; IRC assessment, n=106): 86 patients
median DOR ([4]; IRC-assessed): 22.9 months
CR [4, 10]: 27.4%
DCR [4, 10]: 86.8 (78.8-92.6) %
PD [4, 10]: 8.5%
PR [4, 10]: 53.8%
ORR ([4]; IRC-assessed, n=106, median follow-up 23.8 mo): 81.1 (72.4-88.1) %
CR ([4]; IRC, follow-up 10.5 mo): 25.5%
CR [4, 11]: 34.9%
DCR [4, 11]: 87.7 (79.9-93.3) %
ORR [4, 11]: 82.1 (73.4-88.9) %
PD [4, 11]: 5.7%
PR [4, 11]: 47.2%
median PFS ([4]; full analysis set): 22.0 months and 22 months
patients with objective response ([4]; investigator assessment, n=106): 87 patients
median TTR ([4]; n=106): 1.9 months
ORR (95% CI), IRC ([4]; subgroup Age ≥65): 83.3%
ORR (95% CI), IRC ([4]; subgroup Baseline Splenomegaly Yes): 66.7%
ORR (95% CI), IRC ([4]; subgroup Ki-67 ≥30%): 79.4%
ORR (95% CI), IRC ([4]; subgroup Prior CD20 Antibody Therapy No): 91.7%
ORR (95% CI), IRC ([4]; subgroup Prior lines of therapy ≥2): 75.9%
ORR (95% CI), IRC ([4]; subgroup Tumor Stage III/IV): 80%
ORR (95% CI), IRC ([4]; subgroup longest target lesion ≥10 cm (bulky disease)): 81.8%
Tmax ([5]; human, in vivo, 150 mg, Tmax (median, minimum-maximum), Day 1 single, 150 mg): 2 h
Coefficients of variation of pharmacokinetic parameters ([5]; patients with r/r MCL): < 30%
